The results in this text go back to PMC8565778, “Evaluation of health benefits of sea lamprey (Petromyzon marinus) isolates using in vitro antiinflammatory and antioxidant assays” (PLoS ONE, 2021).

What is called % inhibition is the percentage by which the read-out fell short of the control.

Assay [1] deals with T1, COX-2 (cyclooxygenase enzyme-2) (Homo sapiens, UniProt P35354).
T1 construct: gene PTGS2
T1 sequence (P35354 18-604): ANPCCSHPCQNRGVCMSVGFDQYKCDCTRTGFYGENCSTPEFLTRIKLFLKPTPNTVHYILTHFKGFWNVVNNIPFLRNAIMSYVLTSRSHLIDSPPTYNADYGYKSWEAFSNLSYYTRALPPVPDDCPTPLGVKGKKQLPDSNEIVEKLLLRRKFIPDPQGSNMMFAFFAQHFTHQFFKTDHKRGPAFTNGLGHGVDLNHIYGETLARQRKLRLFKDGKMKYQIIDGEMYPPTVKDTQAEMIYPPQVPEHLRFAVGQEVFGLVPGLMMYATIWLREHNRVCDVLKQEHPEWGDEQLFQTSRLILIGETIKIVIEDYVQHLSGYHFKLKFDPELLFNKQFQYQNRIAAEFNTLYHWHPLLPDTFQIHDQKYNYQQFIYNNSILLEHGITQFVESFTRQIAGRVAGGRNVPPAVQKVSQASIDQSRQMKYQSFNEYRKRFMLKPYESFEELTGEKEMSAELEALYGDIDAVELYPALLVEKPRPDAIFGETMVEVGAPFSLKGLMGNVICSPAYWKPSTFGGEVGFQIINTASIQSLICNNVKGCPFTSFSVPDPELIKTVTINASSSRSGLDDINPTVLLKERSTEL
The assay can be described thus: biochemical. Particulars: read-out: Bioassay results / COX-2 ^a.

In assay [2] the target is T2, COX-1 (cyclooxygenase enzyme-1) (Ovis aries, UniProt P05979).
T2 construct: gene PTGS1
T2 sequence (P05979 25-600): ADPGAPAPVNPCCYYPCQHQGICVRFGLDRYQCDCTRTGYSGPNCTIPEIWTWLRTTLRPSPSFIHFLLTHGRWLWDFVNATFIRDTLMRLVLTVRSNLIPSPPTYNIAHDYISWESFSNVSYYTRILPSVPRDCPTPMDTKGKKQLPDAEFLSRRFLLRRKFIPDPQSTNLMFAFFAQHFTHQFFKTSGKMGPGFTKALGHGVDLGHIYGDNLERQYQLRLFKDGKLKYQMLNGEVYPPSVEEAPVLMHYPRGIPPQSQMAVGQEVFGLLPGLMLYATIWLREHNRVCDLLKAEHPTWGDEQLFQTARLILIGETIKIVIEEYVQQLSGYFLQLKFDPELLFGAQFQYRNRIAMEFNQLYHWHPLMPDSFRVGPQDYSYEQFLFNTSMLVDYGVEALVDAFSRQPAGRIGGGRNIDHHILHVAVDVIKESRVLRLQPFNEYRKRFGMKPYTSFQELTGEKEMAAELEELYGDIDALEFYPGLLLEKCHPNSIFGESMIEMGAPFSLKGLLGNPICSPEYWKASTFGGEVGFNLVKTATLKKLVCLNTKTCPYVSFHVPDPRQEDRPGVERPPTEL
The assay can be described thus: biochemical. Particulars: read-out: Bioassay results / COX-1^a.

Assay [3] concerns the target T2, COX-1 (cyclooxygenase enzyme-1). Briefly: in vitro COX-1 enzyme inhibitory assay, single concentration […]. To be noted: read-out: Bioassay results / COX-1^a. Format: biochemical.
Assay [4] has the same target. Briefly: biochemical. Details: In vitro cyclooxygenase (COX-1 and COX-2) enzyme inhibition assay, percent inhibition. Particulars: read-out: % inhibition. The method, then:
(see S1 File for experimental details). To evaluate the health-beneficial activity of the sea lamprey compounds, we included all isolates of sea lamprey extract for the evaluation of in vitro antiinflammatory and antioxidant activities. […] (S1 File). […] Antiinflammatory activities of arginine, tyrosine, tryptophan, asparagine and inosine were assayed at 50 μg/mL concentration.

For assay [5], the target named is T1, COX-2 (cyclooxygenase enzyme-2). The assay can be described thus: biochemical. To be noted: read-out: % inhibition. Details: In vitro cyclooxygenase (COX-1 and COX-2) enzyme inhibition assay, percent inhibition.
Details of assay [6]: Fe2+-induced liposome lipid peroxidation; per cent inhibition measured as loss of fluorescent probe signal. To be noted: large unilamellar vesicles; LPO (lipid peroxidation of large unilamellar liposomes, Fe2+-initiated); 25 ug/mL; inhibitor. The method, then: Pure compounds and positive controls were assayed for LPO inhibitory activities according to published procedures from our laboratory (see S1 File for experimental details). The antioxidant assay, the lipid peroxidation inhibitory (LPO) assay, used in this study measures free radical scavenging capability of pure compounds and extracts. In this assay, peroxidation of the lipid was initiated by the addition of Fe^2+ resulting in the generation of radicals, which cause the peroxidation of LUV and in turn the fluorescent probes embedded in it. The loss of fluorescent intensity in the assay indicates the oxidative damage to the lipid component of the LUV [11–15, 21] (S1 File). At 25 μg/mL concentration, cholesteryl palmitate, cholesteryl oleate, cholesteryl eicosapentaenoate and cholesteryl arachidonate inhibited LPO by 38, 60, 72 and 82%, respectively (Table 2) (Fig S in S1 File). The most abundant steroidal compound in sea lamprey was cholesterol and it lacked LPO inhibitory activity. Antioxidant activity profiles of the cholesterol esters were like its antiinflammatory profiles. That is, an increase in chain length and unsaturation increased the LPO activity. Majority of the lipophilic fraction of the sea lamprey extract consisted of glycerides and free fatty acids.

`COc1ccc2cc([C@H](C)C(=O)O)ccc2c1` [compound 3, Naproxen]: the inhibition at 12 µg/mL came out at 60.5% in assay [1] and 61.4% in assay [2].
As to `CC(C)Cc1ccc(C(C)C(=O)O)cc1` (centres unmarked) [compound 4, Ibuprofen], the inhibition at 15 µg/mL in assay [3] is 56.4%.
`CC/C=C\C/C=C\C/C=C\C/C=C\C/C=C\CCCC(=O)O[C@H]1CC[C@@]2(C)C(=CC[C@H]3[C@@H]4CC[C@H]([C@H](C)CCCC(C)C)[C@@]4(C)CC[C@@H]32)C1` [compound 10, Cholesteryl eicosapentaenoate]: the inhibition at 25 µg/mL in assay [4] turned out to be 63.9 ± 2.1%; in assay [5], 58.5 ± 1.7%. In addition, in assay [6], the “% inhibition” value was found to be 72.0 ± 1.4%.
On the same counts, the results for `CCCCC/C=C\C/C=C\C/C=C\C/C=C\CCCC(=O)O[C@H]1CC[C@@]2(C)C(=CC[C@H]3[C@@H]4CC[C@H]([C@H](C)CCCC(C)C)[C@@]4(C)CC[C@@H]32)C1` [compound 11, Cholesteryl arachidonate] are 74.7 ± 0.4%, 67.9 ± 2.2% and 82.0 ± 1.4%.
As to `N[C@@H](CS)C(=O)O` [compound 30, Cysteine], in assay [6], the “% inhibition” value was found to be 47.0 ± 1.4%.
On the same count and under the same terms, the figure for `O=C(O)[C@@H]1CCCN1` [compound 31, Proline] is 17.0 ± 1.4%; for `N[C@@H](CO)C(=O)O` [compound 32, Serine] it is 29.0 ± 1.4%; for `N[C@@H](CC(=O)O)C(=O)O` [compound 33, Aspartic acid] it is 36.5 ± 0.7%.
Turning to `CN(CC(=O)O)C(=N)N` [compound 34, Creatine], the “% inhibition” value in assay [6] came out at 16.5 ± 0.7%.
On the same count and under the same terms, the figure for `O=c1[nH]cnc2c1ncn2[C@@H]1O[C@H](CO)[C@@H](O)[C@H]1O` [compound 35, Inosine] is 16.5 ± 2.1%; for `Nc1[nH]cnc2ncnc1-2` [compound 36, Adenine] it is 19.5 ± 0.7%.
Still for that read-out and setting: to `O=c1[nH]c(=O)c2nc[nH]c2[nH]1` [compound 37, Xanthine] belongs 22.0 ± 1.4%.
As for `O=c1[nH]cnc2nc[nH]c12` [compound 38, Hypoxanthine], the “% inhibition” value in assay [6] was found to be 24.5 ± 0.7%.
`NCCCCN` [compound 41, Putrescine]: the “% inhibition” value in assay [6] was found to be 17.0 ± 1.4%.
In the case of `NCCCNCCCCNCCCN` [compound 42, Spermine], the “% inhibition” value in assay [6] is 16.5 ± 0.7%.
For `CCCC(=O)C(=O)O` [compound 43, α-Ketovaleric acid], in assay [6], the “% inhibition” value amounted to 15.0 ± 1.4%.
For `CC(C)C(=O)C(=O)O` [compound 44, α-Ketoisovaleric acid], in assay [6], the “% inhibition” value was 15.5 ± 0.7%.
Still for that read-out and setting: to `CCC(=O)C(=O)O` [compound 45, α-Ketobutyric acid] belongs 16.5 ± 0.7%.
For `CC(O)CC(=O)O` (stereo not drawn) [compound 46, β-Hydroxybutyric acid], in assay [6], the “% inhibition” value was determined as 21.5 ± 0.7%.
On to `CC(=O)C(=O)O` [compound 47, Pyruvic acid], for which, in assay [6], the “% inhibition” value is reported as 23.5 ± 0.7%.
Consider `O=C(O)C(O)Cc1ccccc1` (centres unmarked) [compound 48, 3-Phenyllactic acid], for which the “% inhibition” value in assay [6] was 25.0 ± 1.4%.
